The test system of experiment [1] is phenylquinone-induced writhing. Put plainly: Phenylquinone-induced writhing test on mice. The experiment is classed as in vivo. The following applies: male NMRI mice, 10 min before phenylquinone i.p., writhing counted 5 to 20 min after phenylquinone. As for the experimental part: The analgesic activity was investigated on phenylquinone-induced writhing in mice (modified by I. C. Hendershot and J. Forsaith (1959) J. Pharmacol. Exp. Ther. 125, 237-240). Male NMRI mice weighing 25 to 30 g were used for this. Groups of 10 animals per dose of substance received 0.3 ml/mouse of a 0.02% aqueous solution of phenylquinone (phenylbenzoquinone), Sigma, Deisenhofen; preparation of the solution with addition of 5% ethanol and storage in a water bath at 45° C.) as an intraperitoneal administration 10 minutes after intravenous administration of the test substances. The animals were placed individually in observation cages. The number of pain-induced extension movements (so-called writhing reactions=straightening of the body with stretching out of the hind extremities) 5 to 20 minutes after the administration of phenylquinone was counted by means of a push-button counter. Animals which receive only physiological saline solution were also run as a control. All the substances were tested in the standard dosage of 10 mg/kg. The percentage inhibition (% inhibition) of the writhing reaction by a substance was calculated in accordance with the following equation: [formula] For some substances, the ED50 values with 95% confidence limits of the writhing reaction were calculated from the dose-dependent decrease in the writhing reactions compared with phenylquinone control groups investigated in parallel by means of regression analysis (evaluation program of Martens EDV Service, Eckental).

Experiment [2] relates to bonding site 2 of the sodium channel (BTX bonding site). Kind of experiment: Bonding investigations on the sodium channel, bonding site 2 (BTX bonding). The experiment is classed as binding. The note with it: rat cerebrocortex synaptosomes; for BTX bonding at 10 μM: percentage inhibition at 10 μM test substance, [3H]-batrachotoxin A20 α-benzoate 10 nM. The method, then:
Bonding Site 2 (BTX bonding)
Bonding site 2 of the sodium channel is the so-called batrachotoxin (BTX) bonding site. [^3H]-Batrachotoxin A20 α-benzoate (10 nM in the batch) was employed as the ligand. These ion channel particles (synaptosomes) were concentrated out of the rat cerebrocortex by the method of Gray and Whittaker (E. G. Gray and V. P. Whittaker (1962) J. Anat. 76, 79-88). The radioactivity measured in the presence of veratridin (0.3 mM in the batch) is defined as non-specific bonding. Incubation at 37° C. for 120 min. The assay conditions were implemented in accordance with the publication of Pauwels, Leysen and Laduron (P. J. Pauwels, J. E. Leysen and P. M. Laduron (1986) Eur. J. Pharmacol. 124, 291-298).
(§1) In addition to the percentage inhibition of the test systems at fixed test substance concentrations (10 μM in the batch), dose-dependencies were investigated. In this investigation, IC50 values are obtained, and these can be converted by the “Cheng-Prusoff equation” (Y. C. Cheng and W. H. Prusoff (1973) Biochem. Pharmacol. 22, 3099-3108) into inhibitor constants (Ki). The IC50 values were obtained with the aid of the “Figure P” computer program (version 6.0, Biosoft, Cambridge, England). Km values were calculated by the method of Lineweaver and Burk (H. Lineweaver and D. Burk (1934) J. Am. Chem. Soc. 56, 658-666). The “Ligand” computer program (version 4, Biosoft, England) is used to obtain KD values.

In experiment [3] the test system is benzothiazepine bonding site of the L-type calcium channel. Kind of experiment: Bonding investigations on the L calcium channel, benzothiazepine bonding site (diltiazem bonding). The experiment is classed as binding. The following applies: rat cerebrocortex membranes; for Diltiazem bonding at 10 μM: percentage inhibition at 10 μM test substance, [3H]-cis-(+)-diltiazem 5 nM. As for the experimental part: Benzothiazepine Bonding Site (diltiazem bonding)
The biological membrane material was isolated from the cerebrocortex of the rat. [^3H]-cis-(+)-Diltiazem (5 nM in the batch) was used as the ligand. Incubation for 20 minutes at 25° C. The radioactivity measured in the presence of (+)-diltiazem (10^−6 M in the batch) is defined as non-specific bonding. At the end of the incubation, the non-bonded content of radioactive ligand is removed with the aid of a filtration process over Whatman glass fiber GF/B membranes. After a washing process, the membranes are then measured on a β-counter. The method has been established in accordance with the publication of Schoemaker and Langer (H. Schoemaker and S. Z. Langer (1985) Eur. J. Pharmacol. 111, 273-277).
as §1

This note sets out measurements from USRE39530E1, “3-amino-3-arylpropan-1-ol-compounds, their preparation and use” (Gruenenthal GmbH, priority 1999, dated 2007).

In general, Kd refers to the free concentration of one partner at which half of the binding sites on the other are occupied at equilibrium, for simple one-to-one binding.

Turning to `CN(C)C(c1ccccc1)C1CCCCC1OC(=O)c1ccc(C(F)(F)F)cc1.Cl` (stereo not shown) [Example 2, [2-(Dimethylaminophenylmethyl)cyclohexyl]-4-trifluoromethylbenzoate hydrochloride], the “% Inhibition of the writhing reaction at 10 mg/kg intravenously” value (“% Inhibition of the writhing reaction” below) in experiment [1] amounted to 48%. Moreover, the “BTX bonding at 10 μM” value in experiment [2] came to 98%.
On to `CN(C)C(c1ccccc1)C1CCCCC1OCc1cccc(F)c1.Cl` (stereo not shown) [Example 5, {[2-(3-Fluorobenzyloxy)cyclohexyl]-phenylmethyl}dimethylamine hydrochloride], for which the “% Inhibition of the writhing reaction” value in experiment [1] is 74%. In experiment [3], the “Diltiazem bonding at 10 μM” value came to 89%. For the same compound, the “BTX bonding at 10 μM” value in experiment [2] is on record as 98%.
For `CN(C)C(c1ccccc1Cl)C1CCCCC1OCc1ccccc1Cl.Cl` (stereo not shown) [Example 4, {[2-(2-Chlorobenzyloxy)cyclohexyl]-(2-chlorophenyl)methyl}-dimethylamine hydrochloride], the “% Inhibition of the writhing reaction” value in experiment [1] turned out to be 32%. In experiment [3], the “Diltiazem bonding at 10 μM” value stood at 73%. Further, the “BTX bonding at 10 μM” value in experiment [2] is recorded as 92%.
Consider “[^3H]-cis-(+)-Diltiazem [reference compound]”, for which the Kd in experiment [3] (radioligand, means±SEM, N=3, read-out: KD value for this high-affinity bonding site) amounted to 4.1 ± 0.75 nM.
For “[^3H]-Batrachotoxin A20 α-benzoate [reference compound]”, in experiment [2] (radioligand, means±SEM, N=3, read-out: KD value for this bonding site), the Kd came out at 24.6 ± 1.56 nM.
Take `CN(C)C(c1ccccc1)C1CCCCC1OCc1ccc(F)cc1.Cl` (stereo not shown) [Example 6, {[2-(4-Fluorobenzyloxy)cyclohexyl]-phenylmethyl}dimethylamine hydrochloride]: the “% Inhibition of the writhing reaction” value in experiment [1] came out at 68%. Also, the “Diltiazem bonding at 10 μM” value in experiment [3] worked out at 86%. For the same compound, the “BTX bonding at 10 μM” value in experiment [2] was 97%.
In the same order, the values of `Cc1ccccc1COC1CCCCC1C(c1ccccc1)N(C)C.Cl` (stereo not shown) [Example 1, Dimethyl-{[2-(2-methyl-benzyloxy)cyclohexyl]phenylmethyl}-amine hydrochloride] are 85%, 82% and 99%.
In the same order, the values of `COc1ccc(C(=O)OC2CCCCC2C(c2ccccc2)N(C)C)cc1.Cl` (stereo not shown) [Example 3, [2-(Dimethylaminophenylmethyl)cyclohexyl]4-methoxybenzoate hydrochloride] are 43%, 65% and 89%.
